Data from US10722463B2, “Compositions and methods using same for delivering agents into a target organ protected by a blood barrier” (Zuli Holdings Ltd., priority 2005, dated 2020).

System: blood barrier of rabbit brain
Assay: Detection of liposomes in the brain and spinal cord by confocal microscopy after intravenous injection (Example 1)
Format: in vivo, New Zealand White male rabbits
Conditions: rabbits, 1.5 ml/kg intravenous, one and four hours following administration
Procedure: A particular liposome formulation was tested for crossing the blood barrier of rabbit brain.
The rabbits were perfused with 200-250 ml PBS prior to spinal cord excision (post the border of the medulla oblongata (between C1 to C2)) and brain removal as shown in FIG. 1 (frontal neocortex (frontal part), corpus callosum, hippocampus and mid brain)). The brains and spinal cords were harvested and fixed (3.7% formalin/PBS) for 10 minutes (37% formalin diluted with PBS 1:10, to a final concentration of 3.7%). The fixed brains and spinal cords were embedded in OCT compound, placed into plastic molds and frozen at −70° C. 8-10 μm tissue slices were cut using a cryotome at −20° C. and fixed on slides after which they were rinsed with PBS for 5 minutes. Finally, slides were mounted using mounting solution (80% glycerol/20% PBS) and sealed with nail polish. Slides were analyzed using confocal microscopy.

O=S(=O)(O)c1cc(O)c2ccc3c(S(=O)(=O)O)cc(S(=O)(=O)O)c4ccc1c2c34 [1-Hydroxypyren-3,6,8-Trisulfonic acid]
detection of fluorescent marker in spinal cord and brain tissue: can be detected

Rhodamin-DSPE
detection of fluorescent marker in spinal cord and brain tissue: can be detected
